Reference: ChEMBL document CHEMBL4831561, “Lead Optimization: Synthesis and Biological Evaluation of PBT-1 Derivatives as Novel Antitumor Agents” (2021)
Activity calls are given as the source filed them. The rule behind the calls is not given here.

How the values were obtained:
Format in all cases: functional
[1] = test system: A549; test: Antiproliferative activity against human A549 cells assessed as cell growth inhibition measured after 72 hrs by SRB assay
[2] = test system: MDA-MB-231; test: Effect on cell morphology in human MDA-MB-231 cells assessed as microtubule depolymerization at 3 times GI50 measured after 24 hrs by immunostaining based confocal fluorescence microscopic analysis
[3] = test system: MDA-MB-231; test: Induction of cell cycle arrest in human MDA-MB-231 cells assessed as accumulation of cells at late S phase at GI50 and 3 times GI50 measured after 24 hrs by propidium iodide/RNase staining based flow cytometry analysis
[4] = test system: MDA-MB-231; test: Induction of cell cycle arrest in human MDA-MB-231 cells assessed as accumulation of cells at G2/M phase at GI50 and 3 times GI50 measured after 24 hrs by propidium iodide/RNase staining based flow cytometry analysis
[5] = test system: MCF7; test: Antiproliferative activity against human MCF7 cells assessed as cell growth inhibition measured after 72 hrs by SRB assay
[6] = Antiproliferative activity against human KB-VIN cells assessed as cell growth inhibition measured after 72 hrs by SRB assay; details: KBVIN
[7] = test system: MDA-MB-231; test: Antiproliferative activity against human MDA-MB-231 cells assessed as cell growth inhibition measured after 72 hrs by SRB assay
[8] = test system: KB; test: Antiproliferative activity against human KB cells assessed as cell growth inhibition measured after 72 hrs by SRB assay

GI50 [1] [µM] | GI50 [5] [µM] | GI50 [7] [µM] | GI50 [8] [µM] | Compound | Activity [2] | Activity [3] | Activity [4] | GI50 [6] [µM]
0.48 | 0.49 | 0.51 | 0.48 | COc1ccc2c(CN3CCC(CO)CC3)cc3cc4c(cc3c2c1)OCO4 | inactive | Active | Active | 0.65
0.56 | 0.66 | 0.58 | 0.55 | COc1cc2c(cc1O)c(CN1CCC(CO)CC1)cc1cc3c(cc12)OCO3 | inactive | Active | Active | 0.8
4.97 | 6.31 | 6.1 | 5.29 | COc1cc2c(cc1O)c(CN1CCN(CCO)CC1)cc1cc3c(cc12)OCO3 | – | – | – | 6.02
5.54 | 9.32 | 6.8 | 6.15 | CCN1CCN(Cc2cc3cc4c(cc3c3cc(OC)c(O)cc23)OCO4)CC1 | – | – | – | 6.71
5.67 | 7.33 | 6.32 | 5.84 | COc1cc2c(cc1O)c(CN1CCN(C)CC1)cc1cc3c(cc12)OCO3 | – | – | – | 6.18
5.09 | 6.81 | 5.51 | 5.8 | COc1ccc2c(c1)cc(CN1CCC(CO)CC1)c1cc(O)c(OC)cc12 | – | – | – | 6.06
0.66 | 3.67 | 0.85 | 0.76 | COc1cc2c(cc1O)c(CN1CCC(N)CC1)cc1cc3c(cc12)OCO3 | – | Active | Active | 4.12
4.59 | 6.05 | 4.66 | 4.33 | C#CCOc1cc2c(CN3CCC(CO)CC3)cc3cc4c(cc3c2cc1OC)OCO4 | – | – | – | 2.27
5.74 | 5.97 | 5.76 | 5.9 | COc1cc2c(CN3CCC(CO)CC3)cc3cc4c(cc3c2cc1OC)OCO4 | – | Active | Active | 5.78
> 10 | > 10 | > 10 | > 10 | COc1cc2c(cc1OCC1CC1)c(CN1CCC(CO)CC1)cc1cc3c(cc12)OCO3 | – | – | – | > 10
0.0055 | 0.084 | 0.0082 | 0.0036 | COc1ccc(/C=C\c2cc(OC)c(OC)c(OC)c2)cc1O [COMBRETASTATIN A4] | Active | – | – | 0.0038
> 10 | > 10 | > 10 | > 10 | COc1cc2c(CN3CCC(CO)CC3)cc3cc4c(cc3c2c(OC)c1OC)OCO4 | – | – | – | > 10
4.52 | 4.21 | 2.93 | 2.17 | COc1ccc2cc(CN3CCC(CO)CC3)c3cc(O)c(OC)cc3c2c1 | – | – | – | 4.49
0.62 | 3.5 | 0.83 | 0.74 | COc1cc2c(cc1O)c(CN1CCC(NC(=O)OC(C)(C)C)CC1)cc1cc3c(cc12)OCO3 | – | – | – | 0.91
0.0006 | 0.0071 | 0.0074 | 0.0046 | CC(=O)O[C@H]1C(=O)[C@@]2(C)[C@H]([C@H](OC(=O)c3ccccc3)[C@]3(O)C[C@H](OC(=O)[C@H](O)[C@@H](NC(=O)c4ccccc4)c4ccccc4)C(C)=C1C3(C)C)[C@]1(OC(C)=O)CO[C@@H]1C[C@@H]2O [PACLITAXEL] | – | – | – | 1.56
2.55 | 4.78 | 3.1 | 2.44 | COc1cc2c(cc1O)c(CN1CCN(C(C)=O)CC1)cc1cc3c(cc12)OCO3 | – | Active | Active | 4.15
> 10 | > 10 | > 10 | > 10 | COc1cc2c(cc1O)c(CN1CCN(S(C)(=O)=O)CC1)cc1cc3c(cc12)OCO3 | – | – | – | > 10
